Data as given in the supplement of paper PMC10307832.

What was measured:
Assay in all cases: relative viability (nuclei count vs DMSO), 5 days (fraction); higher = more cells survive
Everolimus + Bortezomib = compound: CO[C@H]1C[C@@H]2CC[C@@H](C)[C@@](O)(O2)C(=O)C(=O)N2CCCC[C@H]2C(=O)O[C@H]([C@H](C)C[C@@H]2CC[C@@H](OCCO)[C@H](OC)C2)CC(=O)[C@H](C)/C=C(\C)[C@@H](O)[C@@H](OC)C(=O)[C@H](C)C[C@H](C)/C=C/C=C/C=C/1C [Everolimus] + CC(C)C[C@H](NC(=O)[C@H](Cc1ccccc1)NC(=O)c1cnccn1)B(O)O [Bortezomib] (partner 0.002 µM)
Summary of the method: (§1)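 Medians of duplicate plates are given as relative viability. That measure is the nuclei count in treated wells divided by the count in vehicle wells. Counts were taken on 4× images of lung cancer cell lines in 1536-well plates, 5 days after pin-tool dosing the day after seeding with one drug alone or a fixed anchor-drug dose plus five library-drug doses (not always all listed) in √10 steps.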

Everolimus + Tozasertib = compound: CO[C@H]1C[C@@H]2CC[C@@H](C)[C@@](O)(O2)C(=O)C(=O)N2CCCC[C@H]2C(=O)O[C@H]([C@H](C)C[C@@H]2CC[C@@H](OCCO)[C@H](OC)C2)CC(=O)[C@H](C)/C=C(\C)[C@@H](O)[C@@H](OC)C(=O)[C@H](C)C[C@H](C)/C=C/C=C/C=C/1C [Everolimus] + Cc1cc(Nc2cc(N3CCN(C)CC3)nc(Sc3ccc(NC(=O)C4CC4)cc3)n2)n[nH]1 [Tozasertib] (partner 0.1 µM)
Summary of the method: as §1

Everolimus + AZD7762 = compound: CO[C@H]1C[C@@H]2CC[C@@H](C)[C@@](O)(O2)C(=O)C(=O)N2CCCC[C@H]2C(=O)O[C@H]([C@H](C)C[C@@H]2CC[C@@H](OCCO)[C@H](OC)C2)CC(=O)[C@H](C)/C=C(\C)[C@@H](O)[C@@H](OC)C(=O)[C@H](C)C[C@H](C)/C=C/C=C/C=C/1C [Everolimus] + NC(=O)Nc1cc(-c2cccc(F)c2)sc1C(=O)N[C@H]1CCCNC1 [AZD7762] (partner 0.2 µM)
Summary of the method: as §1

Everolimus + Decitabine = compound: CO[C@H]1C[C@@H]2CC[C@@H](C)[C@@](O)(O2)C(=O)C(=O)N2CCCC[C@H]2C(=O)O[C@H]([C@H](C)C[C@@H]2CC[C@@H](OCCO)[C@H](OC)C2)CC(=O)[C@H](C)/C=C(\C)[C@@H](O)[C@@H](OC)C(=O)[C@H](C)C[C@H](C)/C=C/C=C/C=C/1C [Everolimus] + Nc1ncn([C@H]2C[C@H](O)[C@@H](CO)O2)c(=O)n1 [Decitabine] (partner 2 µM)
Summary of the method: as §1

Cell Line	relative viability (Everolimus + Bortezomib; first compound 0.01 µM)	relative viability (Everolimus + Bortezomib; first compound 0.03162 µM)	relative viability (Everolimus + Bortezomib; first compound 0.1 µM)	relative viability (Everolimus + Bortezomib; first compound 0.3162 µM)	relative viability (Everolimus + Bortezomib; first compound 1 µM)	relative viability (Everolimus + Tozasertib; first compound 0.01 µM)	relative viability (Everolimus + Tozasertib; first compound 0.03162 µM)	relative viability (Everolimus + Tozasertib; first compound 0.1 µM)	relative viability (Everolimus + Tozasertib; first compound 0.3162 µM)	relative viability (Everolimus + Tozasertib; first compound 1 µM)	relative viability (Everolimus + AZD7762; first compound 0.03162 µM)	relative viability (Everolimus + AZD7762; first compound 0.1 µM)	relative viability (Everolimus + AZD7762; first compound 0.3162 µM)	relative viability (Everolimus + AZD7762; first compound 1 µM)	relative viability (Everolimus + Decitabine; first compound 0.03162 µM)	relative viability (Everolimus + Decitabine; first compound 0.1 µM)	relative viability (Everolimus + Decitabine; first compound 0.3162 µM)	relative viability (Everolimus + Decitabine; first compound 1 µM)	relative viability (Everolimus + AZD7762; first compound 0.01 µM)	relative viability (Everolimus + Decitabine; first compound 0.01 µM)
EKVX	0.636	0.721	0.631	0.558	0.6	0.327	0.333	0.214	0.257	0.259	0.68	0.41	0.415	0.432	0.245	0.226	0.226	0.371		
NCI-H1734	0.529	0.624	0.497	0.515	0.546	0.263	0.234	0.223	0.235	0.248	0.365	0.291	0.283	0.313	0.397	0.351	0.371	0.367	0.336	0.422
ABC-1	0.272	0.3	0.304	0.285	0.293	0.183	0.172	0.163	0.193	0.208	0.479	0.747	0.702	0.89		0.603		0.883	0.667	0.637
EPLC-272H	0.573	0.589	0.517	0.638	0.558	0.19	0.286	0.176	0.242	0.216	0.229	0.172	0.172	0.222	0.291	0.259	0.306	0.327	0.133	0.312
NCI-H1993	0.571	0.521	0.598	0.567	0.64	0.482	0.508	0.573	0.521	0.485	0.505	0.371	0.472	0.439	0.542	0.433	0.46	0.447	0.461	0.468
NCI-H596	0.813	0.716	0.658	0.612	0.589	0.528	0.548	0.485	0.455	0.478	0.726	0.609	0.665	0.674	0.595	0.739	0.69	0.605	0.945	0.761
HCC-827	0.995	1.19	1.07	1.16	1.09	0.451	0.417	0.404	0.378	0.366	0.164	0.185	0.193	0.163	0.234	0.303	0.319	0.287	0.188	0.282
ChaGo-K-1	0.992	0.909	0.993	0.955	1.01	0.226	0.208	0.215	0.215	0.238	0.917	0.743	0.769	0.866	0.478	0.461	0.419	0.458	0.799	0.5
EMC-BAC-2	0.731	0.69	0.645	0.588	0.616	0.289	0.296	0.244	0.258	0.266	0.761	0.645	0.653	0.692	0.81	0.659		0.755	0.846	0.743
NCI-H23	0.497	0.471	0.334	0.565	0.555	0.396	0.295	0.299	0.358	0.217	0.185	0.218	0.219	0.175	0.283	0.257	0.259	0.254	0.144	0.264
RERF-LC-KJ	0.92	0.621	0.731	0.64	0.611	0.398	0.436	0.382	0.431	0.428	0.415	0.462	0.507	0.598	0.594	0.552	0.541	0.45	0.566	0.535
LC-2-ad	1.05	1.1	0.997	0.943	1	0.434	0.384	0.385	0.423	0.343	0.85	0.775	0.79	0.83	0.779	0.888	0.819	0.726	0.802	0.846
HCC-15	1.01	1.09	0.968	1.06	1.07	0.483	0.457	0.437	0.365	0.272	1.26	1.33	1.24	1.48	0.463	0.511	0.604	0.482	1.37	0.597
NCI-H2405	0.783	1.07	0.783	0.726	0.744	0.832	0.729	0.717	0.762	0.657	0.652	0.657	0.637	0.662	0.531	0.539	0.532	0.52	0.655	0.521
LXF-289	0.976	1.01	0.987	1.03	1.01	0.217	0.217	0.162	0.205	0.193	1.28	1.17	1.12	1.24	0.359	0.306	0.38	0.411	1.18	0.358
